# Measured values from patent US20240409536A1, “COMPOUNDS AND METHODS FOR MODULATING SPLICING” (REMIX THERAPEUTICS INC., priority 2021, published 2024).
# What was measured:
# HTT mRNA = assay: Gene panel canonical junction qPCR assay, HTT CJ mRNA decrease; assay type: cell-based, human; conditions: Homo sapiens, decrease in CJ mRNA levels, read-out: HTT IC50
# Protocol: (§1) Compounds described herein were used to modulate RNA transcript abundance in cells. The expression of a target mRNA was measured by detecting the formation of an exon-exon junction in the canonical transcript (CJ). A compound mediated exon-inclusion event was detected by observing an increase in formation of a new junction with an alternative exon (AJ). Real-time qPCR assays were used to detect these splicing switches and interrogate the potency of various compounds towards different target genes. A high-throughput real time quantitative PCR (RT-qPCR) assay was developed to measure these two isoforms of the mRNA (CJ and AJ) for exemplary genes, such as HTT, SMN2, and MYB, together with a control housekeeping gene, GAPDH or GUSB or PPIA, used for normalization. Briefly, the A673 or K562 cell line was treated with various compounds described herein (e.g., compounds of Formula (I), (I), or (III)). After treatment, the levels of the HTT, MYB, or SMN2 mRNA targets were determined from each sample of cell lysate by cDNA synthesis followed by qPCR.
# (§2) The data analysis was performed by first determining the ΔCt vs the housekeeper gene. This ΔCt was then normalized against the DMSO control (ΔΔCt) and converted to RQ (relative quantification) using the 2^(−ΔΔCt) equation. The RQ were then converted to a percentage response by arbitrarily setting an assay window of 3.5 and 4.0 ΔCt for HTT-CJ and MYB-CJ respectively and an assay window of 9 and 3 ΔCt for HTT-AJ and MYB-AJ in 96 well format (50,000 K562 cells/well and 15,000 A673 cells per well) and an assay window of 3 and 4 ΔCt for HTT-CJ and MYB-CJ respectively and an assay window of 5 and 3 ΔCt for HTT-AJ and MYB-AJ respectively in 384 well format (8,000 K562 cells/well example). […] The percentage response was then fitted to the 4 parametric logistic equation to evaluate the concentration dependence of compound treatment. The increase in AJ mRNA is reported as AC50 (compound concentration having […] in AJ increase) while the decrease in CJ mRNA levels is reported as IC50 (compound concentration having 50) response in CJ decrease).
# (§3) Additional studies were carried out for a larger panel of genes using the protocol provided above. The junction between flanking upstream and downstream exons was used to design canonical junction qPCR assays. At least one of the forward primer, reverse primer or the CY5-labeled 5′ nuclease probe (with 3′ quencher such as ZEN/Iowa Black FQ) was designed to overlap with the exon junction to capture the CJ mRNA transcript. BLAST was used to confirm the specificity of the probeset and parameters such as melting temperature, GC content, amplicon size, and primer dimer formation are considered during their design. Data for the decrease in CJ mRNA levels for four exemplary genes (HTT, SMN2, MYB, and Target C) analyzed in this panel are reported as IC50 (compound concentration having […] in CJ decrease).
# (§4) A summary of the results from the panel is illustrated in Tables 5A and 51B, wherein “A” represents an IC50 of less than 100 nM; “B” represents an IC50 of between 100 nM and 1 μM; and “C” represents an IC50 of between 1 μM and 10 μM; and “D” represents an IC50 of greater than 10 μM.
# MYB mRNA = assay: Gene panel canonical junction qPCR assay, MYB CJ mRNA decrease; assay type: cell-based, human; conditions: Homo sapiens, decrease in CJ mRNA levels, read-out: MYB IC50
# Protocol: as §1, §2, §3, §4
# SMN2 mRNA = assay: Gene panel canonical junction qPCR assay, SMN2 CJ mRNA decrease; assay type: cell-based, human; conditions: Homo sapiens, decrease in CJ mRNA levels, read-out: SMN2 IC50
# Protocol: as §1, §2, §3, §4
# Target C mRNA = assay: Gene panel canonical junction qPCR assay, Target C CJ mRNA decrease; assay type: cell-based; conditions: Homo sapiens, decrease in CJ mRNA levels, read-out: Target C IC50
# Protocol: as §1, §2, §3, §4
Compound,IC50 (HTT mRNA),IC50 (MYB mRNA),IC50 (SMN2 mRNA),IC50 (Target C mRNA)
Cc1cn2cc(NC(=O)c3sc(N4CCNC(C)C4)cc3F)c(C)cc2n1 (stereo not drawn) [Compound 639],1000 to 10000 nM,100 to 1000 nM,100 to 1000 nM,1000 to 10000 nM
Cc1cn2cc(NC(=O)c3sc(N4CC5(CN(C)C5)C4)cc3F)cc(F)c2n1 [Compound 608],> 10000 nM,1000 to 10000 nM,> 10000 nM,> 10000 nM
Cc1cn2cc(-c3sc(C(=O)NC4CCNCC4)c(Cl)c3C#N)cc(F)c2n1 [Compound 671],1000 to 10000 nM,100 to 1000 nM,> 10000 nM,–
Cn1cc2c(F)cc(NC(=O)c3sc(C4CCNCC4)cc3F)cc2n1 [Compound 656],100 to 1000 nM,< 100 nM,1000 to 10000 nM,–
Cc1cn2cc(NC(=O)c3sc(N4CCN5CCCC5C4)cc3F)cc(F)c2n1 (stereo not drawn) [Compound 612],> 10000 nM,1000 to 10000 nM,> 10000 nM,1000 to 10000 nM
Cc1cn2nc(NC(=O)c3sc(N4CCNC(C)C4)cc3F)cc2c(C)n1 (stereo not drawn) [Compound 643],> 10000 nM,> 10000 nM,> 10000 nM,> 10000 nM
Cc1cn2cc(NC(=O)c3sc(N4C[C@H]5CC[C@@H](C4)N5)cc3F)cc(F)c2n1 [Compound 616],> 10000 nM,1000 to 10000 nM,> 10000 nM,–

# Continued, values first:
IC50 (HTT mRNA),IC50 (MYB mRNA),IC50 (SMN2 mRNA),IC50 (Target C mRNA),Compound
100 to 1000 nM,100 to 1000 nM,1000 to 10000 nM,1000 to 10000 nM,Cc1cn2cc(NC(=O)c3sc([C@H]4CCN[C@H](C)C4)cc3F)cc(F)c2n1 [Compound 592]
1000 to 10000 nM,100 to 1000 nM,–,1000 to 10000 nM,Cc1cn2cc(NC(=O)c3sc(N4CCNC(C)C4)cc3F)cc(F)c2n1 (stereo not drawn) [Compound 601]
> 10000 nM,1000 to 10000 nM,1000 to 10000 nM,1000 to 10000 nM,Cc1cn2cc(NC(=O)c3sc(C4CCN(C)CC4)cc3F)cc(F)c2n1 [Compound 618]
> 10000 nM,100 to 1000 nM,–,> 10000 nM,COc1cc(N2CCNC(C)C2)sc1C(=O)Nc1cc(F)c2nc(C)cn2c1 (stereo not drawn) [Compound 597]
1000 to 10000 nM,100 to 1000 nM,1000 to 10000 nM,–,Cc1cn2cc(NC(=O)c3sc(C4C[C@@H](C)N[C@@H](C)C4)cc3F)cc(F)c2n1 (stereo partly drawn) [Compound 620]
100 to 1000 nM,< 100 nM,> 10000 nM,–,Cc1cn2cc(NC(=O)c3sc([C@H]4CCN[C@H](C)C4)cc3F)cc(C(F)(F)F)c2n1 [Compound 669]
